Experimental data taken from PMC11110727, “Exploiting thiol-functionalized benzosiloxaboroles for achieving diverse substitution patterns – synthesis, characterization and biological evaluation of promising antibacterial agents” (RSC Medicinal Chemistry, 2024).
In brackets after ≈: the same amount, converted by molar mass. Like-named read-outs stand apart in the source and are kept apart here.

Columns and labels:
S. marcescens ATCC 13880 = assay: Antibacterial activity: MIC/MBC, MIC with PAβN, disc-diffusion; type: cell-based, Serratia marcescens; details: Serratia marcescens, ATCC13880
Method in brief: (§1)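 MICs were measured by CLSI broth microdilution in Mueller–Hinton II broth, with or without the efflux-pump inhibitor PAβN (20 μg mL^−1) and with 1 mM MgSO4 present. A reduction of at least 4-fold with PAβN was counted as significant. Disc diffusion followed EUCAST/CLSI, MBC followed CLSI, and compounds were dissolved in DMSO.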

[1] = tested on: S. aureus ATCC 43300 MRSA; assay: Antibacterial activity: MIC/MBC determination and disc-diffusion; type: cell-based; details: Staphylococcus aureus
Method in brief: (§2)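 Reference agents: fluconazole for yeasts, linezolid for Gram-positive bacteria. Testing used disc diffusion and MIC determination under EUCAST and CLSI recommendations, with MBC/MFC per CLSI. Inocula came from two subcultures at 30 °C for 24–48 h.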

E. faecalis ATCC 29212 = assay: as above; type: cell-based; details: Enterococcus faecalis, ATCC29212
Method in brief: as §2

[2] = tested on: S. epidermidis ATCC 12228; assay: as above; type: cell-based; details: Staphylococcus epidermidis, ATCC12228
Method in brief: as §2

E. faecium ATCC 6057 = assay: as above; type: cell-based; details: Enterococcus faecium, ATCC6057
Method in brief: as §2

C. albicans ATCC 90028 = assay: Antifungal activity: MIC/MFC, disc-diffusion; type: cell-based, Candida albicans; details: for MIC: Candida albicans, ATCC90028
Method in brief: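 Following two 24–48 h subcultures at 30 °C on the appropriate agar, the clinical MRSA isolates and yeast strains were tested by broth MIC and disc diffusion (EUCAST, CLSI). Killing endpoints (MBC/MFC) were determined per CLSI.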

C. krusei ATCC 6258 = assay: Antifungal activity: MIC/MFC, disc-diffusion; type: cell-based; details: for diameter of inhibition zone: C. krusei ATCC 6258, (-) = zone not observed, paper discs 9 mm; for MIC: Pichia kudriavzevii, ATCC6258
Method in brief: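 Yeast subcultured on Sabouraud dextrose agar 24–48 h at 30 °C before testing. Disc-diffusion and MIC per EUCAST and CLSI recommendations; MFC per CLSI. Compounds dissolved in DMSO.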

P. aeruginosa ATCC 27853 = assay: Antibacterial activity: MIC/MBC, MIC with PAβN, disc-diffusion; type: cell-based; details: Pseudomonas aeruginosa, ATCC27853
Method in brief: as §1

P. mirabilis ATCC 12453 = assay: as above; type: cell-based, Proteus mirabilis; details: Proteus mirabilis, ATCC12453
Method in brief: as §1

E. cloacae DSM 6234 = assay: as above; type: cell-based, Enterobacter cloacae; details: for MIC: Enterobacter cloacae, DSM6234
Method in brief: as §1

[3] = S. marcescens ATCC 13880, read-out: MIC
[4] = S. aureus ATCC 43300 MRSA, read-out: MBC (first MBC where Eagle effect)
[5] = S. aureus ATCC 43300 MRSA, read-out: MIC
[6] = E. faecalis ATCC 29212, read-out: MIC
[7] = S. epidermidis ATCC 12228, read-out: MIC
[8] = E. faecium ATCC 6057, read-out: MIC
[9] = P. aeruginosa ATCC 27853, read-out: MIC
[10] = P. mirabilis ATCC 12453, read-out: MIC
[11] = E. cloacae DSM 6234, read-out: MIC

SMILES	MIC (S. marcescens ATCC 13880; [3]) [µg/mL]	MBC [1, 4] [µg/mL]	MIC [1, 5] [µg/mL]	MBC (E. faecalis ATCC 29212; E. faecalis ATCC 29212) [µg/mL]	MIC (E. faecalis ATCC 29212; [6]) [µg/mL]	MBC ([2]; S. epidermidis ATCC 12228) [µg/mL]	MIC [2, 7] [µg/mL]	MIC (E. faecium ATCC 6057; [8]) [µg/mL]	MIC (C. albicans ATCC 90028; read-out: MIC) [µg/mL]	MIC (C. krusei ATCC 6258; read-out: MIC) [µg/mL]	MIC (P. aeruginosa ATCC 27853; [9]) [µg/mL]	MIC (P. mirabilis ATCC 12453; [10]) [µg/mL]	MIC (E. cloacae DSM 6234; [11]) [µg/mL]	other results
C[Si]1(C)OB(O)c2ccc(SC3CC(=O)N(c4ccc(Br)c(C(F)(F)F)c4)C3=O)c(F)c21 (centres unmarked) [Compound 17, 1-(4-Bromo-3-(trifluoromethyl)phenyl)-3-((7-fluoro-3-hydroxy-1,1-dimethyl-1,3-dihydrobenzo[c][1,2,5]oxasilaborol-6-yl)thio)pyrrolidine-2,5-dione]	> 200	100 (≈ 182 µM)	25 (≈ 45.6 µM)	200 (≈ 365 µM)	12.5 (≈ 22.8 µM)	100 (≈ 182 µM)	12.5 (≈ 22.8 µM)	25 (≈ 45.6 µM)	100 (≈ 182 µM)	100 (≈ 182 µM)	> 200	> 200	> 200	diameter of inhibition zone (C. albicans ATCC 90028; C. albicans ATCC 90028, (-) = zone not observed, paper discs 9 mm): 20 mm; diameter of inhibition zone (C. krusei ATCC 6258): 18 mm
C[Si]1(C)OB(O)c2cc(F)c(SCCC(=O)OCCCCCC[n+]3ccccc3)c(F)c21 [Compound 18, 1-(6-((3-((5,7-difluoro-3-hydroxy-1,1-dimethyl-1,3-dihydrobenzo[c][1,2,5]oxasilaborol-6-yl)thio)propanoyl)oxy)hexyl)pyridin-1-ium trifluoromethanesulfonate]	> 400	200	50		200	200	50	100	> 400	> 400	> 400	> 400	> 400	
C[Si]1(C)OB(O)c2ccc(SCCC(=O)OCCCCCC[n+]3ccccc3)c(F)c21 [Compound 19, 1-(6-((3-((7-Fluoro-3-hydroxy-1,1-dimethyl-1,3-dihydrobenzo[c][1,2,5]oxasilaborol-6-yl)thio)propanoyl)oxy)hexyl)pyridin-1-ium trifluoromethanesulfonate]	> 400	100	25	400	100	100	25	100	> 400	> 400	> 400	> 400	> 400	
C[Si]1(C)OB(O)c2cc(F)c(SCCS(=O)(=O)c3ccccc3)c(F)c21 [Compound 20, 5,7-Difluoro-1,1-dimethyl-6-((2-(phenylsulfonyl)ethyl)thio)benzo[c][1,2,5]oxasilaborol-3(1H)-ol]	> 400	200 (≈ 483 µM)	6.25 (≈ 15.1 µM)		100 (≈ 241 µM)	400 (≈ 965 µM)	25 (≈ 60.3 µM)	100 (≈ 241 µM)	> 400	> 400	> 400	> 400	> 400	-fold reduction of MIC in the presence of PAβN (E. cloacae DSM 6234; E. cloacae DSM 6234, PAβN 20 μg mL^−1, MHB + 1 mM MgSO4): 4 -fold
C[Si]1(C)OB(O)c2ccc(SCCS(=O)(=O)c3ccccc3)c(F)c21 [Compound 21, 7-Fluoro-1,1-dimethyl-6-((2-(phenylsulfonyl)ethyl)thio)benzo[c][1,2,5]oxasilaborol-3(1H)-ol]	> 400	400 (≈ 1010 µM)	12.5 (≈ 31.5 µM)		200 (≈ 505 µM)		25 (≈ 63.1 µM)	200 (≈ 505 µM)	400 (≈ 1010 µM)	> 400	> 400	> 400	> 400	
CC(=O)CSc1ccc2c(c1F)[Si](C)(C)OB2O [Compound 22, 1-((7-Fluoro-3-hydroxy-1,1-dimethyl-1,3-dihydrobenzo[c][1,2,5]oxasilaborol-6-yl)thio)propan-2-one]	> 400	200 (≈ 704 µM)	6.25 (≈ 22 µM)	400 (≈ 1410 µM)	25 (≈ 88 µM)	12.5 (≈ 44 µM)	6.25 (≈ 22 µM)	25 (≈ 88 µM)	> 400	200 (≈ 704 µM)	> 400	> 400	> 400	diameter of inhibition zone (C. krusei ATCC 6258): 12 mm
C[Si]1(C)OB(O)c2ccc(SCC(=O)c3ccccc3)c(F)c21 [Compound 23, 2-((7-Fluoro-3-hydroxy-1,1-dimethyl-1,3-dihydrobenzo[c][1,2,5]oxasilaborol-6-yl)thio)-1-phenylethan-1-one]	> 400	25 (≈ 72.2 µM)	3.12 (≈ 9.01 µM)	200 (≈ 578 µM)	50 (≈ 144 µM)	50 (≈ 144 µM)	12.5 (≈ 36.1 µM)	50 (≈ 144 µM)	> 400	200 (≈ 578 µM)	> 400	> 400	> 400	MBC ([1]; S. aureus ATCC 43300 MRSA, value after the slash, read-out: second MBC (Eagle effect)): 100 µg/mL (≈ 289 µM); diameter of inhibition zone (C. krusei ATCC 6258): 12 mm
CCOP(=O)(OCC)Sc1c(F)cc2c(c1F)[Si](C)(C)OB2O [Compound 24, S-(5,7-Difluoro-3-hydroxy-1,1-dimethyl-1,3-dihydrobenzo[c][1,2,5]oxasilaborol-6-yl) O,O-diethyl phosphorothioate]														MIC (S. marcescens ATCC 13880): > 400 µg/mL; MIC [1]: 12.5 µg/mL (≈ 32.7 µM); MBC ([1]; read-out: MBC (first MBC where Eagle effect)): > 400 µg/mL; MIC (E. faecalis ATCC 29212): > 400 µg/mL; MIC [2]: 100 µg/mL (≈ 262 µM); MIC (E. faecium ATCC 6057): 400 µg/mL (≈ 1050 µM); MIC (C. albicans ATCC 90028): > 400 µg/mL; MIC (C. krusei ATCC 6258): > 400 µg/mL; MIC (P. aeruginosa ATCC 27853): > 400 µg/mL; MIC (P. mirabilis ATCC 12453): > 400 µg/mL; MIC (E. cloacae DSM 6234): > 400 µg/mL
C[Si]1(C)OB(O)c2ccc(SC(=O)c3ccc(C(F)(F)F)cc3)c(F)c21 [Compound 25, S-(7-Fluoro-3-hydroxy-1,1-dimethyl-1,3-dihydrobenzo[c][1,2,5]oxasilaborol-6-yl) 4-(trifluoromethyl)benzothioate]	> 50	25 (≈ 62.5 µM)	12.5 (≈ 31.2 µM)	25 (≈ 62.5 µM)	12.5 (≈ 31.2 µM)	25 (≈ 62.5 µM)	3.12 (≈ 7.8 µM)	12.5 (≈ 31.2 µM)	50 (≈ 125 µM)	> 50	> 50	> 50	> 50	MBC (E. faecium ATCC 6057; E. faecium ATCC 6057): > 50 µg/mL
C[Si]1(C)OB(O)c2cc(F)c(S(=O)(=O)Cl)c(F)c21 [Compound 26, 5,7-Difluoro-3-hydroxy-1,1-dimethyl-1,3-dihydrobenzo[c][1,2,5]oxasilaborole-6-sulfonyl chloride]	> 400		200		200		200	100	> 400	> 400	> 400	> 400	> 400	
C[Si]1(C)OB(O)c2cc(F)c(S(N)(=O)=O)c(F)c21 [Compound 27, 5,7-Difluoro-3-hydroxy-1,1-dimethyl-1,3-dihydrobenzo[c][1,2,5]oxasilaborole-6-sulfonamide]	> 400		> 400		400 (≈ 1360 µM)		> 400	400 (≈ 1360 µM)	> 400	> 400	> 400	> 400	> 400	
C[Si]1(C)OB(O)c2cc(F)c(S(=O)(=O)Nc3ccc(F)cc3)c(F)c21 [Compound 28, 5,7-Difluoro-N-(4-fluorophenyl)-3-hydroxy-1,1-dimethyl-1,3-dihydrobenzo[c][1,2,5]oxasilaborole-6-sulfonamide]	> 400		100 (≈ 258 µM)		400 (≈ 1030 µM)	100 (≈ 258 µM)	50 (≈ 129 µM)	400 (≈ 1030 µM)	> 400	> 400	> 400	> 400	> 400	
